Results reported in ChEMBL document CHEMBL1157596, “Colony stimulating factor-1 receptor as a target for small molecule inhibitors” (Bioorg Med Chem, 2010).
Values belong to the compound of their own block, whether it stands above or below them.

Columns and labels:
Assay type in all cases: cell-based
Set-up in all cases: scale not given: the % may be the effect or the level left
[1] = target: Macrophage colony-stimulating factor 1 receptor (Homo sapiens) (UniProt P07333); assay: Inhibition of CSF1-stimulated human FMS autophosphorylation expressed in growth factor dependent mouse FDC-P1 cells assessed as phosphorylated receptor level at 50 nM relative to control by Western blot
[2] = target: Macrophage colony-stimulating factor 1 receptor (Homo sapiens) (UniProt P07333); assay: Inhibition of CSF1-stimulated human FMS autophosphorylation expressed in growth factor dependent mouse FDC-P1 cells assessed as phosphorylated receptor level at 5 nM relative to control by Western blot
[3] = target: Macrophage colony-stimulating factor 1 receptor (Homo sapiens) (UniProt P07333); assay: Inhibition of CSF1-stimulated human FMS autophosphorylation expressed in growth factor dependent mouse FDC-P1 cells assessed as phosphorylated receptor level at 500 nM relative to control by Western blot
[4] = target: Macrophage colony-stimulating factor 1 receptor (Homo sapiens) (UniProt P07333); assay: Inhibition of CSF1-stimulated human FMS autophosphorylation expressed in growth factor dependent mouse FDC-P1 cells assessed as phosphorylated receptor level at 1.1 uM relative to control by Western blot
[5] = target: Macrophage colony-stimulating factor 1 receptor (Homo sapiens) (UniProt P07333); assay: Inhibition of CSF1-stimulated human FMS autophosphorylation expressed in growth factor dependent mouse FDC-P1 cells assessed as phosphorylated receptor level at 3.3 uM relative to control by Western blot
[6] = target: Macrophage colony-stimulating factor 1 receptor (Homo sapiens) (UniProt P07333); assay: Inhibition of CSF1-stimulated human FMS autophosphorylation expressed in growth factor dependent mouse FDC-P1 cells assessed as phosphorylated receptor level at 0.11 uM relative to control by Western blot
[7] = target: Macrophage colony-stimulating factor 1 receptor (Homo sapiens) (UniProt P07333); assay: Inhibition of CSF1-stimulated human FMS autophosphorylation expressed in growth factor dependent mouse FDC-P1 cells assessed as phosphorylated receptor level at 0.33 uM relative to control by Western blot
[8] = target: Macrophage colony-stimulating factor 1 receptor (Homo sapiens) (UniProt P07333); assay: Inhibition of CSF1-stimulated human FMS autophosphorylation expressed in growth factor dependent mouse FDC-P1 cells assessed as phosphorylated receptor level at 10 uM relative to control by Western blot
[9] = target: Macrophage colony-stimulating factor 1 receptor (Homo sapiens) (UniProt P07333); assay: Inhibition of CSF1-stimulated human FMS autophosphorylation expressed in growth factor dependent mouse FDC-P1 cells assessed as phosphorylated receptor level at 31 nM relative to control by Western blot
[10] = target: Macrophage colony-stimulating factor 1 receptor (Homo sapiens) (UniProt P07333); assay: Inhibition of CSF1-stimulated human FMS autophosphorylation expressed in growth factor dependent mouse FDC-P1 cells assessed as phosphorylated receptor level at 1 nM relative to control by Western blot

Macrophage colony-stimulating factor 1 receptor (Homo sapiens), sequence (P07333 whole entry): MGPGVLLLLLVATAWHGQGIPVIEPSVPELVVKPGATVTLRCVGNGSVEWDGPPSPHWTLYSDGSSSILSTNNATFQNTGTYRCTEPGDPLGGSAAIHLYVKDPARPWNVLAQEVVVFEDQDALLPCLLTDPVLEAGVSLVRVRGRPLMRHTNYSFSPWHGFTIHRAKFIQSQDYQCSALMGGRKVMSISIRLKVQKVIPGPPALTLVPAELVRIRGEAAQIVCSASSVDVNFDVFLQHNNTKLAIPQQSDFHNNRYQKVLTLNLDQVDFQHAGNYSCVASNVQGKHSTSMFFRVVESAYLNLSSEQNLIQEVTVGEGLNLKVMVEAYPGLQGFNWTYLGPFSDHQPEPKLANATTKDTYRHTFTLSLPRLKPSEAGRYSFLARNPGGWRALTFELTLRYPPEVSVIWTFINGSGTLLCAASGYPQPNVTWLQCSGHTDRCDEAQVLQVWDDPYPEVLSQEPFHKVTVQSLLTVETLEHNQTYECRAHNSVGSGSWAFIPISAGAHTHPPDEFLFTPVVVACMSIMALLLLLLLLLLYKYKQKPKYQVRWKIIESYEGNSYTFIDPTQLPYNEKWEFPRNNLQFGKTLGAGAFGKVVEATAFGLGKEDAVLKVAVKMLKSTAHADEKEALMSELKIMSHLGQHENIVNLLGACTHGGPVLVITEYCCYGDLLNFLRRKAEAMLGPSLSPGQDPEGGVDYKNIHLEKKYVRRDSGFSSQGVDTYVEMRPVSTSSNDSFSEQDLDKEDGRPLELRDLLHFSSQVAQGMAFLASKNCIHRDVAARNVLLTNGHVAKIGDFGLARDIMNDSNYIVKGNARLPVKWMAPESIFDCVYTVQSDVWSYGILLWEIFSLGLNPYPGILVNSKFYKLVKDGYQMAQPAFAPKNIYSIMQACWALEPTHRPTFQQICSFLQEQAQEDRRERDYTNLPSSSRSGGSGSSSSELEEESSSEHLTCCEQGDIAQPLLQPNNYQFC

Activity [1]: 21%
Activity [2]: 110%
Activity [3]: 3%
Compound: CO[C@@H]1[C@H](N(C)C(=O)c2ccccc2)C[C@H]2O[C@]1(C)n1c3ccccc3c3c4c(c5c6ccccc6n2c5c31)C(=O)NC4

Activity [4]: 104%
Activity [5]: 97%
Activity [6]: 104%
Activity [7]: 109%
Activity [8]: 106%
Compound: CN(C)S(=O)(=O)c1ccc2c(c1)/C(=C/c1cc3c([nH]1)CCCC3)C(=O)N2

Activity [9]: 37%
Activity [10]: 90%
Activity [3]: 2%
Compound: CCN(CC)CCNC(=O)c1c(C)[nH]c(/C=C2\C(=O)Nc3ccc(F)cc32)c1C

Compound: C[C@]12O[C@H](C[C@]1(O)CO)n1c3ccccc3c3c4c(c5c6ccccc6n2c5c31)CNC4=O
Activity [10]: 85%
